Experimental data: ChEMBL document CHEMBL1135443, “Acyclic nucleoside analogues as novel inhibitors of human mitochondrial thymidine kinase” (J Med Chem, 2002)

Assays:
[1] = tested on: Thymidine kinase (Herpes simplex virus type 1); conditions: Human alphaherpesvirus 1
[2] = biological target: Thymidine kinase 2, mitochondrial (Homo sapiens) (UniProt O00142)
Sequence of Thymidine kinase 2, mitochondrial (Homo sapiens) (O00142 whole entry, looked up): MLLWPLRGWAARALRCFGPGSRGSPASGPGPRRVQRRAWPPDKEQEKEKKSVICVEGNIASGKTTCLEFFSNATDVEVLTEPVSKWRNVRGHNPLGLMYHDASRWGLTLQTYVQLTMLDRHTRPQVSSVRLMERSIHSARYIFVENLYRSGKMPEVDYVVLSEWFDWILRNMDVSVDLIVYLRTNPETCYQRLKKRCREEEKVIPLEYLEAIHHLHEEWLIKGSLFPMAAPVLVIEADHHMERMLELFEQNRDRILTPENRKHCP

| Structure (SMILES) | NEA [1] | NEA [2] |
| --- | --- | --- |
| Cc1cn(C/C=C\COC(c2ccccc2)(c2ccccc2)c2ccccc2)c(=O)nc1N | Not estimated accurately | Not estimated accurately |
| Cc1cn(Cc2ccccc2COC(c2ccccc2)(c2ccccc2)c2ccccc2)c(=O)[nH]c1=O | Not estimated accurately | Not estimated accurately |
| Cc1cn(C/C=C\CO)c(=O)[nH]c1=O | Not estimated accurately | Not estimated accurately |
| Cc1cn(CC#CCOC(c2ccccc2)(c2ccccc2)c2ccccc2)c(=O)[nH]c1=O | – | Not estimated accurately |
| Nc1nc(O)c2ncn(C/C=C\COC(c3ccccc3)(c3ccccc3)c3ccccc3)c2n1 | Not estimated accurately | Not estimated accurately |
| COc1ccc(C(OC[C@H]2O[C@@H](n3cc(C)c(=O)[nH]c3=O)C[C@@H]2O)(c2ccccc2)c2ccc(OC)cc2)cc1 | – | Not estimated accurately |
| Cc1cn(C/C=C\COC(c2ccccc2)(c2ccccc2)c2ccccc2)c(=O)n(C)c1=O | Not estimated accurately | Not estimated accurately |
